# Reference: patent US20250114294A1, “COMPOSITIONS SUITABLE FOR USE IN SKIN CARE” (Johnson & Johnson Consumer Inc., priority 2023, published 2025)
# Experiments:
# Assay type in all cases: cell-based, human
# interleukin-8 (IL8) = assay: IL8 gene expression (TaqMan qPCR) in EpiDerm Full Thickness skin equivalents; details: EFT-400 skin equivalents, 4 μL topical, 24 hours, normalized to POLR2A, vs PgETOH vehicle; irritation marker
# Protocol: (§1) EpiDerm Full Thickness Skin 3D Equivalents (EFT-400) were purchased from MatTek Corporation (Ashland, MA 01721; lot number 34272, kit N & kit P). Upon receipt the skin equivalents were transferred in new 6-well plates (MatTek Corporation, Ashland, MA 01721) with 2.5 mL of EFT-400 medium (MatTek Corportion, Ashland, MA) and equilibrated overnight.
# (§2) The following day, skin equivalents were treated topically with 4 μL of the following treatments: Vehicle, 0.04% Retinol, 0.04% Retinol +0.05% Myrrh resin extract, or 0.04% Retinol +0.1% Myrrh resin extract.
# (§3) Propylene glycol/ethanol (PgETOH) (3:7) (w/w) was used as a vehicle. Retinol (BASF 50C) was diluted in PgETOH to a stock concentration of 0.4%. 0.4% Retinol was further diluted to make 0.08% Retinol. Since Retinol is 50% active, the percent active Retinol in the final treatment solution was 0.04% Retinol. Myrrh resin extract (Firmenich) was weighed out to 16.1 mg and diluted in 1.6 mL of PgETOH for a 1% Myrrh resin extract stock solution.
# (§4) To make the 0.04% Retinol+0.1% Myrrh resin extract treatment solution combine 100 μL of the 0.4% retinol stock solution, 50 μL of the 1% Myrrh resin extract stock solution, and 350 μL of PgETOH. […]
# (§5) The fold changes were calculated in comparison to the vehicle control and two-tailed two-sample Student t-tests (Microsoft Office Excel 2007; Microsoft, Redmond, WA, USA) were performed. […]
# aquaporin-3 (AQP3) = assay: AQP3 gene expression (TaqMan qPCR) in EpiDerm Full Thickness skin equivalents; details: EFT-400 skin equivalents, 4 μL topical, 24 hours, normalized to POLR2A, vs PgETOH vehicle
# Protocol: as §1, §2, §3, §4, §5
# [1] = tested on: cellular retinoic acid binding protein 2 (CRABP2); assay: CRABP2 gene expression (TaqMan qPCR) in EpiDerm Full Thickness skin equivalents; details: EFT-400 skin equivalents, 4 μL topical, 24 hours, normalized to POLR2A, vs PgETOH vehicle
# Protocol: as §1, §2, §3, §4, §5
structure (smiles),measurement,setting,value
"CC1=C(/C=C/C(C)=C/C=C/C(C)=C/CO)C(C)(C)CCC1 [Sample 2, Retinol]",IL8 Average fold change over untreated,interleukin-8 (IL8),1.22
same,AQP3 Average fold change over untreated,aquaporin-3 (AQP3),1.82
same,CRABP2 Average fold change over untreated,[1],2.22
